The source of these data is patent US10703751B2, “Amino-imidazopyridine derivatives as Janus kinase inhibitors and pharmaceutical use thereof” (LEO Pharma A/S, priority 2017, dated 2020).

Molecules are shown by their SMILES. Where two headings read alike, the source gives them in different places. Where only a bound is given, the exact number is not on record here.

Data set [1] deals with CYP1A2 (Homo sapiens (Human), UniProt P05177). Kind of data set: Reversible CYP inhibition, 1A2. The format is in vitro ADME. The procedure: (§1) Reversible CYP inhibition, time dependent CYP inhibition (TDI) and CYP induction was tested at Cyprotex PLC according to authority guidance.
Sequence of CYP1A2 (P05177 whole entry): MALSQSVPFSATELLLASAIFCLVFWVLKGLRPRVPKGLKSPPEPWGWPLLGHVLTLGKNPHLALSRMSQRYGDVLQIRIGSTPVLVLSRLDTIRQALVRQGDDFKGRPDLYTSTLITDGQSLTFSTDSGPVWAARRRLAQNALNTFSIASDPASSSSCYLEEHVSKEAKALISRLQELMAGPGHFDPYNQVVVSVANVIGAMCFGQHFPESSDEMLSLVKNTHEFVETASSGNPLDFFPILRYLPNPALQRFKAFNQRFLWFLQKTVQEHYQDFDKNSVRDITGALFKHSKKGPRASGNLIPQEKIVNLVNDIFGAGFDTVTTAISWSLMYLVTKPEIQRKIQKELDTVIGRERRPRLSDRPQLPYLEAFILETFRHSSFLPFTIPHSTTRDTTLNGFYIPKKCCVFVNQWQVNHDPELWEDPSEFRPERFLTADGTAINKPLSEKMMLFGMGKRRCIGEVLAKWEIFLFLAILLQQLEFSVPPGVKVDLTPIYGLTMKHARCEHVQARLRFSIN
The subject of data set [2] is CYP3A4 gene expression. Kind of data set: CYP induction, CYP3A4 mRNA expression. Type of data set: in vitro ADME. As for the experimental part:
as §1
(§2) Induction of CYP1A2, CYP2B6 and CYP3A4 gene expression can serve as sensitive representative endpoints for activation of aryl hydrocarbon receptor (AhR), […], respectively. Induction of these nuclear receptors was assessed by measuring the increase in mRNA encoding for […], respectively, at relevant concentrations.
(§3) A >2-fold shift indicate CYP Induction.

The subject of data set [3] is CYP3A4. Kind of data set: CYP induction, CYP3A4 mRNA expression. The format is in vitro ADME. To be noted: human, mean fold shift compared to vehicle, read-out: Fold shift in mRNA expr. (CYP 3A4). As for the experimental part: as §1, §2, §3
For data set [4], the target named is TYK2 (Homo sapiens (Human), UniProt P29597). Kind of data set: TYK2 kinase assay (HTRF). The format is biochemical. As for the experimental part: (§4) Human baculovirus-expressed Janus kinase (JAK) 1, 2, 3 and tyrosin kinase (TYK) 2 were purchased from Carna Biosciences, Inc (#08-144, -045, -046, -147 resp.). All four purified enzymes contain only the catalytic domain. JAK1 (aa 850-1154) and TYK2 (aa 871-1187) are expressed with an N-terminally fused GST-tag, and JAK2 and JAK3 with an N-terminally fused His-tag. Inhibition of phosphorylation of a synthetic peptide was measured in an HTRF-based assay (CisBio #62TKOPEC). First, 75 nL of test compound solution (100% DMSO) was added to a white shallow 384-well plate (NUNC #264706) using a Labcyte ECHO 550 liquid handler. Thereafter, 1 μL of compound dilution buffer (50 mM HEPES, 0.05% bovine serum albumin) and 2 μL of TK solution (TK substrate-biotin in kinase buffer [1× enzymatic buffer from HTRFKinEASE TK kit, 1 mM DTT]) was added. Then, 5 μL kinase-ATP mix (prepared in kinase buffer) was added to the wells and the plates were incubated at RT for 20 (JAK2, 3 and TYK2) to 40 (JAK1) min. For all four kinases a concentration of ATP that corresponded to the Km for ATP was used. The final concentrations of buffers, substrate, kinase and ATP were: JAK1: 50 mM Hepes buffer pH 7.0, 0.01% BSA, 10 mM MgCl2, 1 mM DTT, 7 μM ATP, 50 nM SEB, 1 μM TK Substrate-Biotin and 5 ng/well JAK1; JAK2: 50 mM Hepes buffer pH 7.0, 0.01% BSA, 5 mM MgCl2, 1 mM DTT, 4 μM ATP, 1 μM TK Substrate-Biotin and 0.1 ng/well JAK2; JAK3: 50 mM Hepes buffer pH 7.0, 0.01% BSA, 5 mM MgCl2, 1 mM DTT, 2 μM ATP, 1 μM TK Substrate-Biotin and 0.3 ng/well JAK3; TYK2: 50 mM Hepes buffer pH 7.0, 0.01% BSA, 5 mM MgCl2, 1 mM DTT, 13 μM ATP, 50 nM SEB, 1 μM TK Substrate-Biotin and 0.8 ng/well TYK2. Thereafter, the kinase reaction was stopped by adding 4 μL detection mix (final concentrations: 50 mM Hepes buffer pH 7.0, 0.01% BSA, 0.8 M KF, 20 mM EDTA, 42 nM Streptavidin-XL665 and 1:400 STK Ab Cryptate) and the plates were incubated overnight in the dark. A PerkinElmer Envision reader was used to quantify the HTRF signal using the following filters; 320 nm excitation filter, 665 nm emission filter and a 615 nm 2nd emission filter. A ratio ((665/615)×10^4) was calculated for each well.
Sequence of TYK2 (P29597 871-1187): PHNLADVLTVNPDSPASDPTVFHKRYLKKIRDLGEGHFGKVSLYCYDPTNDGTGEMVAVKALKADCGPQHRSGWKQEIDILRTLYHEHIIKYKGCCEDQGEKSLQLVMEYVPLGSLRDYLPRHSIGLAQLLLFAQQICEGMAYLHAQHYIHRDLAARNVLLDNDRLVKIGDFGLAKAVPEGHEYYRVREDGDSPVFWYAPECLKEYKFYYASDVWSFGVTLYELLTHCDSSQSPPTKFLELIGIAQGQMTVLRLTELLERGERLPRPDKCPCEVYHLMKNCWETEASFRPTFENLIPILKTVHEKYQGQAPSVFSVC
On the technique in general: TR-FRET usually uses a lanthanide donor and a delayed reading to cut background.

Data set [5] concerns CYP2B6. Put plainly: CYP induction, CYP2B6 mRNA expression. The following applies: human, mean fold shift compared to vehicle, read-out: Fold shift in mRNA expr. (CYP 2B6). The format is in vitro ADME. The procedure:
as §1, §2, §3

In data set [6] the test system is STAT5 irfl-bla TF1 cells. Kind of data set: STAT5 assay (EPO stimulated reporter cells). Type of data set: cell-based. The following applies: Homo sapiens, TF-1; erythropoietin (EPO) 10 ng/mL. As for the experimental part: Twenty-five μL of a STAT5 irfl-bla TF1 (Invitrogen # K1219) cell suspension was seeded with a density of about 10,000 cells/well in 384-well Black View-plates (PerkinElmer #6007460) with clear bottom in assay medium (Opti-MEM (Invitrogen #11058-021)+0.5% heat inactivated fetal bovine Serum (Invitrogen #10082-147)+1% non-essential amino acids (Invitrogen #11140-050)+1% sodium pyruvate (Invitrogen #11360-070)+1% penicillin/streptomycin (Invitrogen #15140-122)). The cell plates were incubated overnight in a humidified 37° C. air/CO2 (95%/5%) incubator. The following day, 125 nL of solutions of test compounds and reference compounds were transferred to cell plates using the Labcyte Echo 550 liquid handler. The plates were then incubated for 1 h in a humidified 37° C. air/CO2 (95%/5%) incubator. Hereafter recombinant human erythropoietin (EPO) (Invitrogen # PHC9634) was added to the plates also using the Labcyte Echo 550 to a final concentration of 10 ng/mL. The cells were then incubated for 4½-5 h in a humidified 37° C. air/CO2 (95%/5%) incubator. 8 μL of LiveBLAzer substrate mixture (Invitrogen # K1095) were then added to the assay plates, which were then incubated overnight at RT. Fluorescence was then measured: Excitation: 405 nm; Emission: 460 nm (green channel), Emission: 535 nm (blue channel). Background was subtracted in both emission channels and the ratio 460/535 nm was calculated for each well.

Data set [7] addresses JAK2 (Homo sapiens (Human), UniProt O60674). Put plainly: JAK2 kinase assay (HTRF). The format is biochemical. The following applies: ATP at Km (4 μM). The procedure: as §4
The target in data set [8] is CYP2D6 (Homo sapiens (Human), UniProt P10635). Put plainly: Reversible CYP inhibition, 2D6. Type of data set: in vitro ADME. The following applies: up to 50 μM for Example 3, up to 25 μM for Examples 644 and 641. The procedure: as §1
Sequence of CYP2D6 (P10635 whole entry): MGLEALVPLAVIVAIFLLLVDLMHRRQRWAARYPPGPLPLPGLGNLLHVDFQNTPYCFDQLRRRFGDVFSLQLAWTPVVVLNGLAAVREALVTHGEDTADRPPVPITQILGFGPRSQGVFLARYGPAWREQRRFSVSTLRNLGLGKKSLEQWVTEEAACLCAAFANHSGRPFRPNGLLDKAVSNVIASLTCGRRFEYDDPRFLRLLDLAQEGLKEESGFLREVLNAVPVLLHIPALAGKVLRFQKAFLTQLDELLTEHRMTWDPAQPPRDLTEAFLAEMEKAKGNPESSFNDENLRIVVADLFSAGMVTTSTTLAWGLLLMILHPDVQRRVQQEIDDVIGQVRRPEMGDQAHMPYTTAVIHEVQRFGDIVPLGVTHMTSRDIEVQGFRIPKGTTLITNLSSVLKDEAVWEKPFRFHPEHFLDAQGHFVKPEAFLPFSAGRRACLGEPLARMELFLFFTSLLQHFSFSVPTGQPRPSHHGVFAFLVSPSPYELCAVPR
For data set [9], the target named is JAK3 (Homo sapiens (Human), UniProt P52333). Kind of data set: JAK3 kinase assay (HTRF). The format is biochemical. The procedure: as §4
Sequence of JAK3 (P52333 822-1111): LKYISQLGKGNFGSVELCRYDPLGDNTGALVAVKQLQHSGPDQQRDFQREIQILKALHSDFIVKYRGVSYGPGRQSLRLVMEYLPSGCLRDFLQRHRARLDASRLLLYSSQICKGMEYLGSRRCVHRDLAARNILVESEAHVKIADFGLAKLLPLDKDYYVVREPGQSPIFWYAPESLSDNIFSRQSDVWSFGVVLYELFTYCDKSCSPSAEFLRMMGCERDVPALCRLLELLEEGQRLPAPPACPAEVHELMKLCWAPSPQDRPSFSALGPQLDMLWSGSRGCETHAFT
The target in data set [10] is JAK1 (Homo sapiens (Human), UniProt P23458). Kind of data set: JAK1 kinase assay (HTRF). The format is biochemical. The following applies: for JAK2/JAK1 ratio / JAK3/JAK1 ratio: ratio of the respective EC50. As for the experimental part:
as §4

Data set [11] relates to CYP2B6 gene expression. Put plainly: CYP induction, CYP2B6 mRNA expression. The format is in vitro ADME. The following applies: Example 3: up to at least a concentration of 10 μM; Example 644: at 10 μM. The procedure: as §1, §2, §3
Setting [12] is: reversible, up to 50 μM for Example 3, up to 25 μM for Examples 644 and 641, read-out: 1A2 IC50.

Sequence of JAK2 (O60674 849-1124): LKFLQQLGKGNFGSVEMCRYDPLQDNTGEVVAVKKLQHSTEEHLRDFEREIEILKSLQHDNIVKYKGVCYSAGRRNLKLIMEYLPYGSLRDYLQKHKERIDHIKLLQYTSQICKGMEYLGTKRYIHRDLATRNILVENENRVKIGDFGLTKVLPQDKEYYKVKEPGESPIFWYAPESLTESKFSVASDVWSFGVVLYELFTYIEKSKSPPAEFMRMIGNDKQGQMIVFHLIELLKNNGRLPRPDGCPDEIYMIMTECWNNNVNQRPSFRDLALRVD
Sequence of JAK1 (P23458 850-1154): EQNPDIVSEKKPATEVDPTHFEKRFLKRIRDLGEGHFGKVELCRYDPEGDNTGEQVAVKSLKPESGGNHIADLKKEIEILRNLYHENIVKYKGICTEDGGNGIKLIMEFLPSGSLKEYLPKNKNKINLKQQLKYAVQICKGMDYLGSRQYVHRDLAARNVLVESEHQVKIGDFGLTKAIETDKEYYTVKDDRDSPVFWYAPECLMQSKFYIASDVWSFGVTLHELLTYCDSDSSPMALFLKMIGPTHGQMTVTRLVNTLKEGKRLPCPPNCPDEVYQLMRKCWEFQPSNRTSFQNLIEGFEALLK

As a reminder, the IC50 is the point on the concentration scale where inhibition reaches its midpoint. The EC50 is the concentration at which the effect is half-maximal. A higher EC50 goes with weaker potency. In data set [1], `C[C@@H](O)c1nc2cnc3[nH]ccc3c2n1[C@H]1CC[C@H](C#N)CC1` [Example 641 of WO2011086053] displayed an IC50 of more than 25000 nM. For the same compound, the “CYP3A4 induction (in words)” value in data set [2] was “causes CYP3A4 induction at a concentration of 20 μM and above”. In addition, in data set [3], the CYP3A4 mRNA fold induction vs vehicle at 5 μM turned out to be 1.8, the CYP3A4 mRNA fold induction vs vehicle at 20 μM came out at 2.5 and the CYP3A4 mRNA fold induction vs vehicle at 50 μM worked out at 4. The EC50 in data set [4] came out at 115 nM. In data set [5], the fold change in CYP2B6 mRNA expression vs vehicle at 0.1 μM was found to be 1, the fold change in CYP2B6 mRNA expression vs vehicle at 1 μM came to 1.3 and the fold change in CYP2B6 mRNA expression vs vehicle at 10 μM was 1.4. This compound had a concentration for a half-maximal effect (EC50) in [6] of 5740 nM. The compound also gave an EC50 in [7] of 228 nM. Moreover, in [8], the IC50 is more than 25000 nM. Also, the EC50 in data set [9] was found to be 739 nM. Besides, in data set [10], the EC50 stood at 6.81 nM, the JAK2/JAK1 ratio worked out at 33 and the JAK3/JAK1 ratio was determined as 109.

Regarding `CNc1cc2c(cn1)nc([C@@H](C)O)n2[C@H]1CC[C@H](CC#N)CC1` [Example 3, trans-2-[4-[2-[(1R)-1-Hydroxyethyl]-6-(methylamino)imidazo[4,5-c]pyridin-1-yl]cyclohexyl]acetonitrile], in data set [1] (setting [12]), the IC50 is more than 50000 nM. In data set [2], the “CYP3A4 induction (in words)” value is “does not cause CYP3A4 induction up to at least a concentration of 50 μM”. Moreover, in [3], the CYP3A4 mRNA fold induction vs vehicle at 5 μM amounted to 1.2, the CYP3A4 mRNA fold induction vs vehicle at 20 μM is 1.5 and the CYP3A4 mRNA fold induction vs vehicle at 50 μM was determined as 2. Moreover, the concentration for a half-maximal effect (EC50) in [4] (ATP at Km (13 μM)) was 32 nM. Further, the “CYP2B6 induction (in words)” value in [11] is recorded as “does not cause”. In data set [5], the fold change in CYP2B6 mRNA expression vs vehicle at 0.1 μM is 1.1, the fold change in CYP2B6 mRNA expression vs vehicle at 1 μM stood at 1.5 and the fold change in CYP2B6 mRNA expression vs vehicle at 10 μM is 1.7. In [6], this compound came in with an EC50 of 6420 nM. The compound further came in with an EC50 in [7] of 171 nM. This compound came in with an IC50 in data set [8] of more than 50000 nM. In data set [9] (ATP at Km (2 μM)), this compound came in with an EC50 of 1700 nM. A half-maximal response in [10] (ATP at Km (7 μM)) (EC50) required 3.48 nM. Besides, in [10], the JAK2/JAK1 ratio amounted to 51 and the JAK3/JAK1 ratio was found to be 489.

With `C[C@@H](O)c1nc2cnc3[nH]ccc3c2n1[C@H]1CC[C@H](CC#N)CC1` [Example 644 of WO2011086053], the half-inhibitory concentration (IC50) in [1] (setting [12]) and in data set [8] was more than 25000 nM throughout. Also, in data set [2], the “CYP3A4 induction (in words)” value is “causes CYP3A4 induction at a concentration of 10 μM”. The EC50 came out at 3.32 nM in data set [4] (ATP at Km (13 μM)); 123 nM in data set [6]; 3.34 nM in data set [7]; 13.1 nM in data set [9] (ATP at Km (2 μM)); 0.34 nM in data set [10] (ATP at Km (7 μM)). In [11], the “CYP2B6 induction (in words)” value is “CYP2B6 induction at a concentration of 10 μM”.
